For 22 compounds, T/C results are on record in PubChem BioAssay AID330 (DTP/NCI, 2004).

This assay relates to P388 leukemia ip, CD2F1 mice, survival T/C. Briefly: NCI In Vivo Anticancer Drug Screen. Data for tumor model P388 Leukemia (intraperitoneal) in CD2F1 (CDF1) mice. The following applies: endpoint: median survival time, higher = longer survival. A digest of the protocol:
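Mice carrying the transplanted tumor received test compound or vehicle. Survival was recorded in each group, and the value is the treated-group measurement divided by that of the vehicle-treated control group.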

Where [1] appears, read: dose: 25.0 mg/kg/injection, schedule: Q01DX009 (ip), vehicle: saline.
[2] abbreviates: dose: 50.0 mg/kg/injection, schedule: Q01DX009 (ip), vehicle: saline.
Where [3] appears, read: dose: 50.0 mg/kg/injection, schedule: Q01DX005 (ip), vehicle: saline.
The mark [4] stands for this setting: dose: 100.0 mg/kg/injection, schedule: Q01DX005 (ip), vehicle: saline.
The mark [5] stands for this setting: dose: 200.0 mg/kg/injection, schedule: Q01DX005 (ip), vehicle: saline.
The mark [6] stands for this setting: dose: 50.0 mg/kg/injection, schedule: Q01DX005 (ip), vehicle: saline with Tween-80.
[7] abbreviates: dose: 100.0 mg/kg/injection, schedule: Q01DX005 (ip), vehicle: saline with Tween-80.
[8] abbreviates: dose: 200.0 mg/kg/injection, schedule: Q01DX005 (ip), vehicle: saline with Tween-80.
Where [9] appears, read: dose: 60.0 mg/kg/injection, schedule: Q01DX005 (ip), vehicle: saline with Tween-80.
Setting [10] is: dose: 120.0 mg/kg/injection, schedule: Q01DX005 (ip), vehicle: saline with Tween-80.
Where [11] appears, read: dose: 100.0 mg/kg/injection, schedule: Q01DX001 (ip), vehicle: Klucel (hydroxypropylcellulose) (HPC).
Setting [12] is: dose: 200.0 mg/kg/injection, schedule: Q01DX001 (ip), vehicle: Klucel (hydroxypropylcellulose) (HPC).
[13] abbreviates: dose: 100.0 mg/kg/injection, schedule: Q04DX003 (ip), vehicle: saline with Tween-80.
The mark [14] stands for this setting: dose: 200.0 mg/kg/injection, schedule: Q04DX003 (ip), vehicle: saline with Tween-80.
[15] abbreviates: dose: 400.0 mg/kg/injection, schedule: Q04DX003 (ip), vehicle: saline with Tween-80.

Values joined by “and” are separate entries in the source; they are usually repeats but may differ in a detail not shown here. Equal entries are not always repeated. Inconclusive results and toxic doses are left out.

Consider `CC(=O)N1CCCC2=C1CCCC2`, for which the T/C is, setting by setting: (dose: 25.0 mg/kg/injection, schedule: Q04DX003 (ip), vehicle: saline) 100 % of control; (dose: 50.0 mg/kg/injection, schedule: Q04DX003 (ip), vehicle: saline) 103 % of control; (dose: 100.0 mg/kg/injection, schedule: Q04DX003 (ip), vehicle: saline) 104 % of control and 92 % of control; (dose: 400.0 mg/kg/injection, schedule: Q04DX003 (ip), vehicle: saline) 101 % of control.
Turning to `O=C(Cc1ccccc1)N1CCc2cc3c(cc2C1Cc1cc2c(cc1Br)OCO2)OCO3` (stereo not drawn), the T/C is, setting by setting: (dose: 12.5 mg/kg/injection, schedule: Q01DX001 (ip), vehicle: saline + alcohol) 98 % of control; (dose: 25.0 mg/kg/injection, schedule: Q01DX001 (ip), vehicle: saline + alcohol) 99 % of control; (dose: 50.0 mg/kg/injection, schedule: Q01DX001 (ip), vehicle: saline + alcohol) 100 % of control.
Take `COc1cc2c(cc1OC)C1Cc3ccc4cc(OC)c(OC)cc4c3CN1CC2` (stereo not drawn): the T/C is 90 % of control (dose: 25.0 mg/kg/injection, schedule: Q01DX009 (ip), vehicle: saline with Tween-80); 100 % of control (dose: 50.0 mg/kg/injection, schedule: Q01DX009 (ip), vehicle: saline with Tween-80); 95 % of control (dose: 100.0 mg/kg/injection, schedule: Q01DX009 (ip), vehicle: saline with Tween-80).
Regarding `O=C(O)c1cc(-c2ccncc2)nc2ccccc12`, the T/C (dose: 50.0 mg/kg/injection, schedule: Q01DX005 (ip), vehicle: Klucel (hydroxypropylcellulose) (HPC)) is 99 % of control; the T/C (dose: 100.0 mg/kg/injection, schedule: Q01DX005 (ip), vehicle: Klucel (hydroxypropylcellulose) (HPC)) was 96 % of control; the T/C (dose: 200.0 mg/kg/injection, schedule: Q01DX005 (ip), vehicle: Klucel (hydroxypropylcellulose) (HPC)) was 97 % of control.
As to `c1ccc2c(NCCCCCCCCCCCCNc3c4ccccc4nc4ccccc34)c3ccccc3nc2c1`, the T/C (dose: 1.25 mg/kg/injection, schedule: Q## X009 (ip), vehicle: lactic acid) is 100 % of control and 96 % of control; the T/C (dose: 2.5 mg/kg/injection, schedule: Q## X009 (ip), vehicle: lactic acid) is 99 % of control and 92 % of control; the T/C (dose: 5.0 mg/kg/injection, schedule: Q## X009 (ip), vehicle: lactic acid) is 107 % of control and 110 % of control.
Regarding `CC(=O)N/C(=C/c1ccccc1)C(=O)N1CCCC1C(=O)O` (stereo not drawn), the T/C by setting is: (dose: 12.5 mg/kg/injection, schedule: Q01DX009 (ip), vehicle: saline) 105 % of control; under setting [1], 104 % of control; under setting [2], 96 % of control.
For `Nc1nc(N)c2cc(CNc3ccc(C(=O)NC(C(=O)O)C(=O)O)cc3)ccc2n1`, the T/C is 168 % of control (dose: 0.05 mg/kg/injection, schedule: Q01DX009 (ip), vehicle: saline sonified); 204 % of control (dose: 0.1 mg/kg/injection, schedule: Q01DX009 (ip), vehicle: saline sonified); 86 % of control (dose: 0.2 mg/kg/injection, schedule: Q01DX009 (ip), vehicle: saline sonified); 159 % of control (dose: 100.0 micrograms/kg/injection, schedule: Q01DX009 (ip), vehicle: saline sonified).
Take `O=C(O)CNCCCCCCNCC(=O)O`: the T/C is, setting by setting: under setting [3], 98 % of control; under setting [4], 103 % of control; under setting [5], 106 % of control.
In the case of `O=C1N(CCO)C2=CCCCC23c2[nH]c4ccccc4c2CCN13` (stereo not drawn), the T/C by setting is: under setting [6], 104 % of control; under setting [7], 102 % of control; under setting [8], 102 % of control.
As for `Nc1ccc2c(SCCCCCCSc3c4ccccc4nc4cc(N)ccc34)c3ccccc3nc2c1`, the T/C by setting is: under setting [9], 100 % of control; under setting [10], 101 % of control; (dose: 240.0 mg/kg/injection, schedule: Q01DX005 (ip), vehicle: saline with Tween-80) 104 % of control.
In the case of `C=CCCCN1C(=O)CCC1=O`, the T/C under setting [3] is 105 % of control, the T/C under setting [4] was 97 % of control and the T/C under setting [5] was 100 % of control.
As for `Cc1ccc(S(=O)(=O)OCC2(COS(=O)(=O)c3ccc(C)cc3)COC2)cc1`, the T/C was 107 % of control (dose: 50.0 mg/kg/injection, schedule: Q01DX001 (ip), vehicle: Klucel (hydroxypropylcellulose) (HPC)); 103 % of control under setting [11]; 100 % of control under setting [12].
Consider `COC(=O)c1cc(Cl)ccc1OS(N)(=O)=O`, for which the T/C (dose: 60.0 mg/kg/injection, schedule: Q01DX005 (ip), vehicle: Klucel (hydroxypropylcellulose) (HPC)) is 103 % of control; the T/C (dose: 120.0 mg/kg/injection, schedule: Q01DX005 (ip), vehicle: Klucel (hydroxypropylcellulose) (HPC)) was 102 % of control; the T/C (dose: 240.0 mg/kg/injection, schedule: Q01DX005 (ip), vehicle: Klucel (hydroxypropylcellulose) (HPC)) is 97 % of control.
`COc1cc(C2c3cc(O)c(OC)cc3CC(C(N)=O)C2CO)ccc1O` (stereo not drawn): the T/C was 100 % of control under setting [6], 100 % of control under setting [7] and 98 % of control under setting [8].
Consider `O=C1NC(=O)C(c2ccccc2)(c2ccc(O)cc2)N1` (stereo not drawn), for which the T/C is 115 % of control under setting [13], 110 % of control under setting [14] and 115 % of control under setting [15].
Regarding `COc1cc2c(=O)n(C)c3ccccc3c2cc1OC`, the T/C is, setting by setting: (dose: 25.0 mg/kg/injection, schedule: Q01DX009 (ip), vehicle: other) 91 % of control; (dose: 50.0 mg/kg/injection, schedule: Q01DX009 (ip), vehicle: other) 90 % of control; (dose: 100.0 mg/kg/injection, schedule: Q01DX009 (ip), vehicle: other) 91 % of control; (dose: 200.0 mg/kg/injection, schedule: Q01DX009 (ip), vehicle: other) 93 % of control; (dose: 400.0 mg/kg/injection, schedule: Q01DX009 (ip), vehicle: other) 99 % of control.
Regarding `C[C@@]12N[C@H]3S[C@]1(C)c1ccccc1N2C[C@@H]3C#N`, the T/C runs as follows: (dose: 25.0 mg/kg/injection, schedule: Q01DX005 (ip), vehicle: saline with Tween-80) 99 % of control; under setting [6], 86 % of control and 94 % of control; under setting [7], 96 % of control.
Consider `CCOC(=O)C(Cc1ccccc1C(=O)NC)c1ccccc1` (stereo not drawn), for which the T/C was 95 % of control (dose: 100.0 mg/kg/injection, schedule: Q01DX009 (ip), vehicle: saline sonified); 95 % of control (dose: 200.0 mg/kg/injection, schedule: Q01DX009 (ip), vehicle: saline sonified); 95 % of control (dose: 400.0 mg/kg/injection, schedule: Q01DX009 (ip), vehicle: saline sonified).
With `CNCc1c(C)[nH]c2ccc(N(C)C)cc2c1=O`, the T/C is 101 % of control under setting [9] and 104 % of control under setting [10].
On to `O=C(Cc1ccccc1)c1ccccc1`, for which the T/C is 98 % of control under setting [13], 100 % of control under setting [14] and 100 % of control under setting [15].
With `CCCCCCCCCCCCCCCCCC[N+]1(CC)CCOCC1`, the T/C (dose: 0.78 mg/kg/injection, schedule: Q01DX009 (ip), vehicle: saline) was 87 % of control and 90 % of control; the T/C (dose: 1.56 mg/kg/injection, schedule: Q01DX009 (ip), vehicle: saline) was 106 % of control and 87 % of control and 88 % of control; the T/C (dose: 3.12 mg/kg/injection, schedule: Q01DX009 (ip), vehicle: saline) was 111 % of control and 87 % of control and 88 % of control; the T/C under setting [1] was 86 % of control; the T/C under setting [2] is 96 % of control; the T/C (dose: 100.0 mg/kg/injection, schedule: Q01DX009 (ip), vehicle: saline) is 88 % of control. Besides, for the setting “dose: 200.0 mg/kg/injection, schedule: Q01DX009 (ip), vehicle: saline”, the T/C was 100 % of control.
Take `COc1cc(Cc2nnc(Nc3ccccc3)[nH]c2=O)cc(OC)c1OC`: the T/C was 98 % of control under setting [11]; 94 % of control under setting [12]; 98 % of control (dose: 400.0 mg/kg/injection, schedule: Q01DX001 (ip), vehicle: Klucel (hydroxypropylcellulose) (HPC)).
